Laboratory results from ChEMBL document CHEMBL3400015, “Tertiary amides of Salinomycin: A new group of antibacterial agents against Bacillus anthracis and methicillin-resistant Staphylococcus epidermidis” (Bioorg Med Chem Lett, 2015).
In brackets after ≈: the same amount, converted by molar mass.

Assays:
[1] = test system: Staphylococcus epidermidis; test: Bactericidal activity against Staphylococcus epidermidis ATCC 12228 after 24 hrs; format: functional; conditions: ATCC 12228, 24 h, read-out: MBC99.9
Bacillus subtilis [2] = test: Genotoxicity in rec-positive Bacillus subtilis H17 at 2 ug/9 mm disc after 24 hrs by disc diffusion method; format: toxicity, organism-based
[3] = test system: Staphylococcus epidermidis; test: Antimicrobial activity against methicillin-resistant Staphylococcus epidermidis isolate 458/11 after 18 hrs by twofold serial broth dilution method; format: functional; conditions: isolate 458/11, 18 h
Escherichia coli [4] = test: Bactericidal activity against Escherichia coli NCTC 8196 after 24 hrs; format: functional; conditions: NCTC 8196, 24 h, read-out: MBC99.9
[5] = test system: Staphylococcus epidermidis; test: Antimicrobial activity against methicillin-resistant Staphylococcus epidermidis isolate 454/11 after 18 hrs by twofold serial broth dilution method; format: functional; conditions: isolate 454/11, 18 h
[6] = test system: Staphylococcus epidermidis; test: Bactericidal activity against methicillin-resistant Staphylococcus epidermidis isolate 458/11 after 24 hrs; format: functional; conditions: isolate 458/11, 24 h, read-out: MBC99.9
[7] = test system: Staphylococcus epidermidis; test: Antimicrobial activity against Staphylococcus epidermidis ATCC 35984 after 18 hrs by twofold serial broth dilution method; format: functional; conditions: ATCC 35984, 18 h
Bacillus subtilis [8] = test: Genotoxicity in rec-negative Bacillus subtilis M45 at 2 ug/9 mm disc after 24 hrs by disc diffusion method; format: toxicity, organism-based
Staphylococcus aureus [9] = test: Antimicrobial activity against Staphylococcus aureus ATCC 25923 after 18 hrs by twofold serial broth dilution method; format: functional; conditions: ATCC 25923, 18 h
Staphylococcus aureus [10] = test: Bactericidal activity against Staphylococcus aureus NCTC 4163 after 24 hrs; format: functional; conditions: NCTC 4163, 24 h, read-out: MBC99.9
[11] = test system: Staphylococcus epidermidis; test: Antimicrobial activity against methicillin-resistant Staphylococcus epidermidis isolate 460/11 after 18 hrs by twofold serial broth dilution method; format: functional; conditions: isolate 460/11, 18 h
[12] = test system: Staphylococcus epidermidis; test: Antimicrobial activity against methicillin-resistant Staphylococcus epidermidis isolate 422/10 after 18 hrs by twofold serial broth dilution method; format: functional; conditions: isolate 422/10, 18 h
[13] = test system: Staphylococcus epidermidis; test: Bactericidal activity against methicillin-resistant Staphylococcus epidermidis isolate 407/10 after 24 hrs; format: functional; conditions: isolate 407/10, 24 h, read-out: MBC99.9
Staphylococcus aureus [14] = test: Bactericidal activity against Staphylococcus aureus […] after 24 hrs; format: functional; conditions: read-out: MBC99.9
[15] = test system: Staphylococcus epidermidis; test: Antimicrobial activity against methicillin-resistant Staphylococcus epidermidis isolate 470/11 after 18 hrs by twofold serial broth dilution method; format: functional; conditions: isolate 470/11, 18 h
[16] = test system: Staphylococcus epidermidis; test: Antimicrobial activity against methicillin-resistant Staphylococcus epidermidis isolate 459/11 after 18 hrs by twofold serial broth dilution method; format: functional; conditions: isolate 459/11, 18 h
[17] = test system: Staphylococcus epidermidis; test: Bactericidal activity against methicillin-resistant Staphylococcus epidermidis isolate 403/10 after 24 hrs; format: functional; conditions: isolate 403/10, 24 h, read-out: MBC99.9
Pseudomonas aeruginosa [18] = test: Bactericidal activity against Pseudomonas aeruginosa NCTC 6749 after 24 hrs; format: functional; conditions: NCTC 6749, 24 h, read-out: MBC99.9
Pseudomonas aeruginosa [19] = test: Antimicrobial activity against Pseudomonas aeruginosa NCTC 6749 after 18 hrs by twofold serial broth dilution method; format: functional; conditions: NCTC 6749, 18 h
Escherichia coli [20] = test: Antimicrobial activity against Escherichia coli ATCC 25922 after 18 hrs by twofold serial broth dilution method; format: functional; conditions: ATCC 25922, 18 h
[21] = test system: Staphylococcus epidermidis; test: Bactericidal activity against methicillin-resistant Staphylococcus epidermidis isolate 455/11 after 24 hrs; format: functional; conditions: isolate 455/11, 24 h, read-out: MBC99.9
[22] = test system: Staphylococcus epidermidis; test: Antimicrobial activity against methicillin-resistant Staphylococcus epidermidis isolate 469/11 after 18 hrs by twofold serial broth dilution method; format: functional; conditions: isolate 469/11, 18 h
Pseudomonas aeruginosa [23] = test: Bactericidal activity against Pseudomonas aeruginosa ATCC 15442 after 24 hrs; format: functional; conditions: ATCC 15442, 24 h, read-out: MBC99.9
Escherichia coli [24] = test: Bactericidal activity against Escherichia coli ATCC 25922 after 24 hrs; format: functional; conditions: ATCC 25922, 24 h, read-out: MBC99.9
Bacillus anthracis = test: Antimicrobial activity against Bacillus anthracis 34F2 after 18 hrs by twofold serial broth dilution method; format: functional; conditions: 34F2, 18 h
Escherichia coli [25] = test: Bactericidal activity against Escherichia coli ATCC 10538 after 24 hrs; format: functional; conditions: ATCC 10538, 24 h, read-out: MBC99.9
Escherichia coli [26] = test: Antimicrobial activity against Escherichia coli ATCC 10538 after 18 hrs by twofold serial broth dilution method; format: functional; conditions: ATCC 10538, 18 h
[27] = test system: Staphylococcus epidermidis; test: Antimicrobial activity against methicillin-resistant Staphylococcus epidermidis isolate 424/10 after 18 hrs by twofold serial broth dilution method; format: functional; conditions: isolate 424/10, 18 h
[28] = test system: Staphylococcus epidermidis; test: Antimicrobial activity against methicillin-resistant Staphylococcus epidermidis isolate 403/10 after 18 hrs by twofold serial broth dilution method; format: functional; conditions: isolate 403/10, 18 h
[29] = test system: Staphylococcus epidermidis; test: Antimicrobial activity against methicillin-resistant Staphylococcus epidermidis isolate 407/10 after 18 hrs by twofold serial broth dilution method; format: functional; conditions: isolate 407/10, 18 h
Staphylococcus aureus [30] = test: Antimicrobial activity against Staphylococcus aureus […] after 18 hrs by twofold serial broth dilution method; format: functional
[31] = test system: Staphylococcus epidermidis; test: Bactericidal activity against methicillin-resistant Staphylococcus epidermidis isolate 404/10 after 24 hrs; format: functional; conditions: isolate 404/10, 24 h, read-out: MBC99.9
[32] = test system: Staphylococcus epidermidis; test: Bactericidal activity against methicillin-resistant Staphylococcus epidermidis isolate 461/11 after 24 hrs; format: functional; conditions: isolate 461/11, 24 h, read-out: MBC99.9
Pseudomonas aeruginosa [33] = test: Antimicrobial activity against Pseudomonas aeruginosa ATCC 27853 after 18 hrs by twofold serial broth dilution method; format: functional; conditions: ATCC 27853, 18 h
Staphylococcus aureus [34] = test: Bactericidal activity against Staphylococcus aureus ATCC 6538 after 24 hrs; format: functional; conditions: ATCC 6538, 24 h, read-out: MBC99.9
[35] = test system: Staphylococcus epidermidis; test: Antimicrobial activity against methicillin-resistant Staphylococcus epidermidis isolate 455/11 after 18 hrs by twofold serial broth dilution method; format: functional; conditions: isolate 455/11, 18 h
Pseudomonas aeruginosa [36] = test: Antimicrobial activity against Pseudomonas aeruginosa ATCC 15442 after 18 hrs by twofold serial broth dilution method; format: functional; conditions: ATCC 15442, 18 h
[37] = test system: Staphylococcus epidermidis; test: Bactericidal activity against methicillin-resistant Staphylococcus epidermidis isolate 460/11 after 24 hrs; format: functional; conditions: isolate 460/11, 24 h, read-out: MBC99.9
[38] = test system: Staphylococcus epidermidis; test: Bactericidal activity against methicillin-resistant Staphylococcus epidermidis isolate 424/10 after 24 hrs; format: functional; conditions: isolate 424/10, 24 h, read-out: MBC99.9
Pseudomonas aeruginosa [39] = test: Bactericidal activity against Pseudomonas aeruginosa ATCC 27853 after 24 hrs; format: functional; conditions: ATCC 27853, 24 h, read-out: MBC99.9
[40] = test system: Staphylococcus epidermidis; test: Bactericidal activity against Staphylococcus epidermidis ATCC 35984 after 24 hrs; format: functional; conditions: ATCC 35984, 24 h, read-out: MBC99.9
[41] = test system: Staphylococcus epidermidis; test: Bactericidal activity against methicillin-resistant Staphylococcus epidermidis isolate 459/11 after 24 hrs; format: functional; conditions: isolate 459/11, 24 h, read-out: MBC99.9
[42] = test system: Staphylococcus epidermidis; test: Antimicrobial activity against methicillin-resistant Staphylococcus epidermidis isolate 457/11 after 18 hrs by twofold serial broth dilution method; format: functional; conditions: isolate 457/11, 18 h
Escherichia coli [43] = test: Antimicrobial activity against Escherichia coli NCTC 8196 after 18 hrs by twofold serial broth dilution method; format: functional; conditions: NCTC 8196, 18 h

## CC[C@@H](C(=O)[C@@H](C)[C@@H](O)[C@H](C)[C@@H]1O[C@@H]([C@@H](CC)C(=O)N(CC)CC)CC[C@@H]1C)[C@H]1O[C@]2(C=C[C@@H](O)[C@]3(CC[C@@](C)([C@H]4CC[C@](O)(CC)[C@H](C)O4)O3)O2)[C@H](C)C[C@@H]1C
[1]
  MBC: 64 µg/mL (≈ 79.4 µM)
Bacillus subtilis [2]
  diameter of the inhibition zone (DIZ): 26 mm
[3]
  MIC: 4 µg/mL (≈ 4.96 µM)
Escherichia coli [4]
  MBC: > 256 µg/mL
[5]
  MIC: 4 µg/mL (≈ 4.96 µM)
[6]
  MBC: 128 µg/mL (≈ 159 µM)
[7]
  MIC: 4 µg/mL (≈ 4.96 µM)
Bacillus subtilis [8]
  diameter of the inhibition zone (DIZ): 26 mm
Staphylococcus aureus [9]
  MIC: 2 µg/mL (≈ 2.48 µM)
Staphylococcus aureus [10]
  MBC: 64 µg/mL (≈ 79.4 µM)
[11]
  MIC: 8 µg/mL (≈ 9.92 µM)
[12]
  MIC: 8 µg/mL (≈ 9.92 µM)
[13]
  MBC: 128 µg/mL (≈ 159 µM)
Staphylococcus aureus [14]
  MBC: 64 µg/mL (≈ 79.4 µM)
[15]
  MIC: 4 µg/mL (≈ 4.96 µM)
[16]
  MIC: 4 µg/mL (≈ 4.96 µM)
[17]
  MBC: 256 µg/mL (≈ 318 µM)
Pseudomonas aeruginosa [18]
  MBC: > 256 µg/mL
Pseudomonas aeruginosa [19]
  MIC: > 256 µg/mL
Escherichia coli [20]
  MIC: > 256 µg/mL
[21]
  MBC: 256 µg/mL (≈ 318 µM)
[22]
  MIC: 8 µg/mL (≈ 9.92 µM)
Pseudomonas aeruginosa [23]
  MBC: > 256 µg/mL
Escherichia coli [24]
  MBC: > 256 µg/mL
Bacillus anthracis
  MIC: 1 µg/mL (≈ 1.24 µM)
Escherichia coli [25]
  MBC: > 256 µg/mL
Escherichia coli [26]
  MIC: > 256 µg/mL
[27]
  MIC: 8 µg/mL (≈ 9.92 µM)
[28]
  MIC: 4 µg/mL (≈ 4.96 µM)
[29]
  MIC: 4 µg/mL (≈ 4.96 µM)
Staphylococcus aureus [30]
  MIC: 4 µg/mL (≈ 4.96 µM)
[31]
  MBC: 256 µg/mL (≈ 318 µM)
[32]
  MBC: 128 µg/mL (≈ 159 µM)
Pseudomonas aeruginosa [33]
  MIC: > 256 µg/mL
Staphylococcus aureus [34]
  MBC: 64 µg/mL (≈ 79.4 µM)
[35]
  MIC: 8 µg/mL (≈ 9.92 µM)
Pseudomonas aeruginosa [36]
  MIC: > 256 µg/mL
[37]
  MBC: 256 µg/mL (≈ 318 µM)
[38]
  MBC: 256 µg/mL (≈ 318 µM)
Pseudomonas aeruginosa [39]
  MBC: > 256 µg/mL
[40]
  MBC: 128 µg/mL (≈ 159 µM)
[41]
  MBC: 256 µg/mL (≈ 318 µM)
[42]
  MIC: 4 µg/mL (≈ 4.96 µM)
Escherichia coli [43]
  MIC: > 256 µg/mL
